Measured values as given in patent US6989389B2, “Aryl ether substituted imidazoquinolines” (3M Innovative Properties Co., priority 2000, dated 2006).
Counter-ions that a name gives are not always drawn. Like-named read-outs stand apart in the source and are kept apart here.

What was measured:
[1] = test system: Peripheral blood mononuclear cells (PBMC); test: Cytokine Induction in Human Cells (in vitro human blood cell system, IFN and TNF secreted into culture media); assay type: cell-based; design: key to Lowest Effective Concentration (μM) Tumor Necrosis Factor / Lowest Effective Concentration (μM) Interferon: *: no induction was seen at any of the tested concentrations; details: 18 to 24 hours, tested 30-0.014 μM
Excerpt: An in vitro human blood cell system is used to assess cytokine induction. Activity is based on the measurement of interferon and tumor necrosis factor (α) (IFN and TNF, respectively) secreted into culture media as described by Testerman et. al. In “Cytokine Induction by the Immunomodulators Imiquimod and S-27609”, Journal of Leukocyte Biology, 58, 365-372 (September, 1995).
Whole blood from healthy human donors is collected by venipuncture into EDTA vacutainer tubes. Peripheral blood mononuclear cells (PBMC) are separated from whole blood by density gradient centrifugation using Histopaque®-1077. Blood is diluted 1:1 with Dulbecco's Phosphate Buffered Saline (DPBS) or Hank's Balanced Salts Solution (HBSS). The PBMC layer is collected and washed twice with DPBS or HBSS and resuspended at 4×10^6 cells/mL in RPMI complete. The PBMC suspension is added to 48 well flat bottom sterile tissue culture plates (Costar, Cambridge, Mass. or Becton Dickinson Labware, Lincoln Park, N.J.) containing an equal volume of RPMI complete media containing test compound.
The compounds are solubilized in dimethyl sulfoxide (DMSO). The DMSO concentration should not exceed a final concentration of 1% for addition to the culture wells. The compounds are generally tested at concentrations ranging from 30-0.014 μM.
The solution of test compound is added at 60 μM to the first well containing RPMI complete and serial 3 fold dilutions are made in the wells. The PBMC suspension is then added to the wells in an equal volume, bringing the test compound concentrations to the desired range (30-0.014 μM). The final concentration of PBMC suspension is 2×10^6 cells/mL. The plates are covered with sterile plastic lids, mixed gently and then incubated for 18 to 24 hours at 37° C. in a 5% carbon dioxide atmosphere.
Following incubation the plates are centrifuged for 10 minutes at 1000 rpm (˜200×g) at 4° C. The cell-free culture supernatant is removed with a sterile polypropylene pipet and transferred to sterile polypropylene tubes. Samples are maintained at −30 to −70° C. until analysis. The samples are analyzed for interferon (α) by ELISA and for tumor necrosis factor (α) by ELISA or IGEN Assay.
Interferon (α) concentration is determined by ELISA using a Human Multi-Species kit from PBL Biomedical Laboratories, New Brunswick, N.J. Results are expressed in pg/mL.
Tumor necrosis factor (α) (TNF) concentration is determined using ELISA kits available from Biosource International, Camarillo, Calif. Alternately, the TNF concentration can be determined by Origen® M-Series Immunoassay and read on an IGEN M-8 analyzer from IGEN International, Gaithersburg, Md. The immunoassay uses a human TNF capture and detection antibody pair from Biosource International, Camarillo, Calif. Results are expressed in pg/mL.
The table below lists the lowest concentration found to induce interferon and the lowest concentration found to induce tumor necrosis factor for each compound.

[2] = Homo sapiens, PBMC, lowest concentration found to induce interferon (α), ELISA, read-out: Lowest Effective Concentration (μM) Interferon
[3] = Homo sapiens, PBMC, lowest concentration found to induce tumor necrosis factor (α), ELISA or IGEN assay, read-out: Lowest Effective Concentration (μM) Tumor Necrosis Factor
[4] = lowest concentration found to induce interferon (α), ELISA
[5] = lowest concentration found to induce tumor necrosis factor (α), ELISA or IGEN assay

Structure (SMILES) | melting point [°C] | minimal effective concentration [1, 2] [µM] | Lowest Effective Concentration (μM) Tumor Necrosis Factor [1, 5] | also measured
CCC(COCc1cccc(Cl)c1)n1cnc2c(N)nc3ccccc3c21 (stereo not shown) [Example 17, 1-(1-{[(3-Chlorobenzyl)oxy]methyl}propyl)-1H-imidazo[4,5-c]quinolin-4-amine] | 60 to 62 | 0.12 |  | minimal effective concentration [1, 3]: 0.37 µM
CCCCCCCCc1nc2c(N)nc3ccccc3c2n1CCOCc1ccccc1 [Example 128, 1-[2-(Benzyloxy)ethyl]-2-octyl-1H-imidazo[4,5-c]quinolin-4-amine] | 110 to 111 |  | * | Lowest Effective Concentration (μM) Interferon [1, 4]: *
Nc1nc2ccccc2c2c1ncn2CCOCCCc1ccc(C(=O)O)cc1 (as salt: trifluoroacetate) [Example 14, 4-{3-[2-(4-Amino-1H-imidazo[4,5-c]quinolin-1-yl)ethoxy]propyl}benzoic acid trifluoroacetate] | 235 to 237 |  |  | 
Nc1nc2ccccc2c2c1nc(CC1CC1)n2CCOc1ccccc1 [Example 137, 2-(Cyclopropylmethyl)-1-(2-phenoxyethyl)-1H-imidazo[4,5-c]quinolin-4-amine] | 191.7 to 192.6 |  |  | 
CCOCc1nc2c(N)nc3ccccc3c2n1CCOCCCc1ccccc1 (as salt: hydrochloride) [Example 16, 2-(Ethoxymethyl)-1-[2-(3-phenylpropoxy)ethyl]-1H-imidazo[4,5-c]quinolin-4-amine Hydrochloride] | 128 to 134 |  |  | 
CN(C)c1ccc(CCCOCCn2cnc3c(N)nc4ccccc4c32)cc1 (as salt: trifluoroacetate) [Example 114, 1-(2-{3-[4-(Dimethylamino)phenyl]propoxy}ethyl)-1H-imidazo[4,5-c]quinolin-4-amine] | 137 to 140 |  |  | 
Nc1nc2ccccc2c2c1ncn2CCOCCCc1cccc(C(=O)O)c1 (as salt: trifluoroacetate) [Example 12, 3-{3-[2-(4-Amino-1H-imidazo[4,5-c]quinolin-1-yl)ethoxy]propyl}benzoic acid bis(trifluoroacetate)] | 138 to 140 |  |  | 
CCC(COCc1ccc(Br)cc1)n1cnc2c(N)nc3ccccc3c21 (stereo not shown) [Example 27] |  | 0.12 | * | 
CCC(COc1ccccc1)n1cnc2c(N)nc3ccccc3c21 (stereo not shown) [Example 106, 1-[(1-Phenoxymethyl)propyl]-1H-imidazo[4,5-c]quinolin-4-amine] |  | 0.37 | * | 
CC(Cn1cnc2c(N)nc3ccccc3c21)OCc1ccc(Cl)c(Cl)c1 (stereo not shown) [Example 53] |  | 1.11 | * | 
Nc1nc2ccccc2c2c1ncn2CCOCCCc1ccccc1 [Example 22, 1-[2-(3-Phenylpropoxy)ethyl]-1H-imidazo[4,5-c]quinolin-4-amine] |  | 0.12 |  | minimal effective concentration [1, 3]: 0.37 µM
CC(C)c1ccccc1C#CCOCCn1cnc2c(N)nc3ccccc3c21 (as salt: hydrochloride) [Example 7, 1-(2-{[3-(2-Isopropylphenyl)-2-propynyl]oxy}ethyl)-1H-imidazo[4,5-c]quinolin-4-amine Hydrochloride] | 239 to 241 |  |  | 
CCC(COc1ccc(-n2ccnc2)cc1)n1cnc2c(N)nc3ccccc3c21 (stereo not shown) [Example 101] |  | 0.04 |  | minimal effective concentration [1, 3]: 10 µM
CC(C)(Cn1cnc2c(N)nc3ccccc3c21)OCc1ccccc1Cl [Example 38] |  | 10 | * | 
CCC(COCc1cccc(Cl)c1)n1cnc2c(N)nc3ccccc3c21 (stereo not shown) [Example 47] |  |  | * | minimal effective concentration ([1]; lowest concentration found to induce interferon (α), ELISA, read-out: Lowest Effective Concentration (μM) Interferon): 0.12 µM
Cc1cccc(COCCCCn2cnc3c(N)nc4ccccc4c32)c1 [Example 76] |  | 1.11 | * | 

Structure (SMILES) | melting point [°C] | minimal effective concentration [1, 2] [µM] | Lowest Effective Concentration (μM) Tumor Necrosis Factor [1, 5] | also measured
CC(COCc1ccc(Cl)cc1)n1cnc2c(N)nc3ccccc3c21 (stereo not shown) [Example 73] |  | 1.11 | * | 
CC(Cn1cnc2c(N)nc3ccccc3c21)OCc1ccc(Cl)cc1 (stereo not shown) [Example 52] |  | 1.11 | * | 
Cc1ccc([N+](=O)[O-])c(OC(C)Cn2cnc3c(N)nc4ccccc4c32)c1 (stereo not shown) [Example 56] |  | 1.11 |  | minimal effective concentration [1, 3]: 10 µM
CCCCc1nc2c(N)nc3c(c2n1CCOCc1cccc(C#N)c1)CCCC3 [Example 94] |  | 0.01 |  | minimal effective concentration [1, 3]: 3.33 µM
CCC(COCc1cccc(C)c1)n1cnc2c(N)nc3ccccc3c21 (stereo not shown) [Example 25] |  | 0.12 | * | 
CC(Cn1cnc2c(N)nc3ccccc3c21)OCc1cccc2ccccc12 (stereo not shown) [Example 69] |  | 1.11 | * | 
Nc1nc2ccccc2c2c1ncn2CC(OCc1cccc(Cl)c1)c1ccccc1 (stereo not shown) [Example 30] |  | 3.33 | * | 
Nc1nc2ccccc2c2c1ncn2CCOCCCc1ccc(-n2cccc2)cc1 (as salt: trifluoroacetate) [Example 11, 1-(2-{3-[4-(1H-1-Pyrrolyl)phenyl]propoxy}ethyl)-1H-imidazo[4,5-c]quinolin-4-amine trifluoroacetate] | 179 to 181 |  |  | 
Nc1nc2ccccc2c2c1ncn2CCOCCCc1ccc(C(=O)O)cc1 [Example 14, 4-{3-[2-(4-Amino-1H-imidazo[4,5-c]quinolin-1-yl)ethoxy]propyl}benzoic acid trifluoroacetate] |  | 10 |  | minimal effective concentration [1, 3]: 10 µM
CC(C)C(COCc1cccc(Cl)c1)n1cnc2c(N)nc3ccccc3c21 (stereo not shown) [Example 61] |  | 3.33 | * | 
CC[C@H](COCCCc1ccccc1)n1cnc2c(N)nc3ccccc3c21 [Example 109, 1-{(1R)-1-[(3-Phenylpropoxy)methyl]propyl}-1H-imidazo[4,5-c]quinolin-4-amine] |  | 0.01 |  | minimal effective concentration [1, 3]: 0.37 µM
CC(Cn1cnc2c(N)nc3ccccc3c21)OCc1ccc(C(C)(C)C)cc1 (stereo not shown) [Example 67] |  |  |  | minimal effective concentration [1, 3]: 30 µM; Lowest Effective Concentration (μM) Interferon [1, 4]: *
Nc1nc2ccccc2c2c1ncn2CCOCCCc1ccccc1C(=O)O (as salt: trifluoroacetate) [Example 13, 2-{3-[2-(4-Amino-1H-imidazo[4,5-c]quinolin-1-yl)ethoxy]propyl}benzoic acid trifluoroacetate] | 186 to 188 |  |  | 
Nc1nc2ccccc2c2c1ncn2CCOCc1ccccc1 [Example 42] |  | 0.37 | * | 
CCC(COc1ccc(C(C)(C)CC(C)(C)C)cc1)n1cnc2c(N)nc3ccccc3c21 (stereo not shown) [Example 103] |  |  |  | minimal effective concentration [1, 3]: 10 µM; Lowest Effective Concentration (μM) Interferon [1, 4]: *
CCC(COCC(=O)OC)n1cnc2c(N)nc3ccccc3c21 (stereo not shown) [Example 43] |  | 0.37 | * | 
